Source: ChEMBL document CHEMBL4340549, “Design, synthesis and biological evaluation of isochroman-4-one hybrids bearing piperazine moiety as antihypertensive agent candidates” (Bioorg Med Chem, 2019)

Legend:
Rattus norvegicus [1] = test: Antihypertensive activity in spontaneously hypertensive rat assessed as diastolic arterial pressure at 80 mg/kg, po measured after 0 hrs by tail-cuff method (reference value: 149.50 +/- 5.4 mmHg); assay type: functional
Thoracic aorta = test: Vasodilatory activity in Sprague-Dawley rat thoracic aorta assessed as inhibition of noradrenaline-induced contractions at 100 uM relative to untreated control; assay type: functional
Rattus norvegicus [2] = test: Antihypertensive activity in spontaneously hypertensive rat assessed as diastolic arterial pressure at 80 mg/kg, po measured after 2 hrs by tail-cuff method (reference value: 149.90 +/- 6 mmHg); assay type: functional
Rattus norvegicus [3] = test: Effect on heart rate in spontaneously hypertensive rat assessed as heart rate level at 80 mg/kg, po measured after 6 hrs by tail-cuff method (reference value: 411.12 +/- 19.1 bpm); assay type: ADME, organism-based; settings: in vivo
[4] = biological target: T1, Alpha-1D adrenergic receptor (Rattus norvegicus, UniProt P23944); test: Antagonist activity at alpha-1D adrenergic receptor in SPF rat vas thoracic aorta assessed as inhibition of noradrenaline-induced contractions; settings: read-out: pA2 (converted)
T1 sequence (P23944 whole entry): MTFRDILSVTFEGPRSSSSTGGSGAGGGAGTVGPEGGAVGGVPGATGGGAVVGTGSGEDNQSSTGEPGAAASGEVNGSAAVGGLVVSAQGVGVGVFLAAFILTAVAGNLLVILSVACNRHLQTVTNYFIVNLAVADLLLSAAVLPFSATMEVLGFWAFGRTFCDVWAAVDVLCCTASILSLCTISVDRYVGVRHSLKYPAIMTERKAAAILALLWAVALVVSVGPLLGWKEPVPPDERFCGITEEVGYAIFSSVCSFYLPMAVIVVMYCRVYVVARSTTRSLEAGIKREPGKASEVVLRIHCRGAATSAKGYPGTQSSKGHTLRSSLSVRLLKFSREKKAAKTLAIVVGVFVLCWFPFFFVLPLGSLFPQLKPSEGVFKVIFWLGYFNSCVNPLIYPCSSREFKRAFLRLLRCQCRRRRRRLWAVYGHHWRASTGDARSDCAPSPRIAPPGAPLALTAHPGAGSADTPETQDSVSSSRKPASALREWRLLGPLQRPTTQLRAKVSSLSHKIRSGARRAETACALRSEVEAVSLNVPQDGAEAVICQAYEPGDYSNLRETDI

Rattus norvegicus [5] = test: Antihypertensive activity in spontaneously hypertensive rat assessed as diastolic arterial pressure at 80 mg/kg, po measured after 6 hrs by tail-cuff method (reference value: 137.54 +/- 9.2 mmHg); assay type: functional
Rattus norvegicus [6] = test: Antihypertensive activity in spontaneously hypertensive rat assessed as systolic arterial pressure at 80 mg/kg, po measured after 4 hrs by tail-cuff method (reference value: 178.66 +/- 17.18 mmHg); assay type: functional
Rattus norvegicus [7] = test: Antihypertensive activity in spontaneously hypertensive rat assessed as mean arterial pressure at 80 mg/kg, po measured after 6 hrs by tail-cuff method (reference value: 151.48 +/- 12.24 mmHg); assay type: functional
Rattus norvegicus [8] = species on record: Rattus norvegicus; test: Ratio of pA2 for alpha-1b adrenergic receptor in SPF rat spleen to pA2 for alpha-1a adrenergic receptor in SPF rat prostatic vas deferens; assay type: tissue-based

With `COc1cc2c(cc1OCC(O)CN1CCN(C(=O)C3CCCO3)CC1)C(=O)C(C)OC2` (centres undefined) the Activity (Rattus norvegicus [1]) was 156.23 mmHg, the inhibition at 100 µM (Thoracic aorta) was 64% and the Activity (Rattus norvegicus [2]) was 131.86 mmHg. The Activity (Rattus norvegicus [3]) was 411.01 bpm, the Kb [4] was 189 to 195 nM and the Activity (Rattus norvegicus [5]) was 132.51 mmHg. It also gave an Activity (Rattus norvegicus [6]) of 140.29 mmHg, an Activity (Rattus norvegicus [7]) of 140.83 mmHg and a Ratio (Rattus norvegicus [8]) of 6.3.
